Data set [1] has as its target human recombinant D3 receptor (Homo sapiens (Human), UniProt P35462). Nature of the data set: Test of binding inhibition for dopamine D3 receptor. Conditions: Jump-In HEK cell membranes, 2 nM [3H]-Methylspiperone, 120 min at 25° C.; read-out: hD3_Ki. On the procedure: Test Example 1: Test of Binding Inhibition for Dopamine D3 Receptor
(§1) (Experimental Conditions)
Cell membranes: Jump-In HEK cell membranes expressing human recombinant D3 receptor (4 μg/well)
(§2) Buffer solution: 50 mM Tris-HCl (35409-45, Nacalai Tesque) (pH 7.4) containing 120 mM NaCl (31320-05, Nacalai Tesque), 1 mM MgCl2.6H2O (20909-55, Nacalai Tesque), 5 mM KCl (28514-75, Nacalai Tesque) and 2 mM CaCl2 (067-31, NAKARAI CHEMICALS, LTD.)
Radioligand: (final concentration) 2 nM [^3H]-Methylspiperone ([^3H—N-methyl-]-Methylspiperone, NET-856, 83.8 Ci/mmol, PerkinElmer)
Non-specific ligand: (final concentration) 10 μM Butaclamol [(+)-Butaclamol Hydrochloride, D033, Sigma]
(§3) SPA beads solution: SPA beads [WGA PVT SPA Scintillation Beads, RPNQ0001 (500 mg), RPNQ0060 (2 g), PerkinElmer] (0.2 mg/well)
(§4) Incubation time and temperature: 120 min at 25° C.
(§5) Butaclamol or the compounds of the present invention were weighed and DMSO was added to make a 10 mM solution. This solution was diluted to each concentration.
[^3H]-Methylspiperone was weighed and the buffer solution was added to make a 6 nM solution.
(§6) SPA beads were weighed and stirred in water to make a 50 mg/mL solution. Using this solution, a mixture with the cell membranes was prepared.
(§7) 225 nL of the solutions of the non-specific ligand or the compounds of the present invention at each concentration (in case of vehicle, final concentration 0.3% DMSO) were added in each well of a 384-well white/clear bottom microplate (3706, Corning). Jump-In HEK Cell membranes (final reaction amount: 4 μg protein/well), the SPA beads solution (final reaction amount: 0.2 mg/well) and the buffer solution were mixed and the mixed solution was left still for 1 hour or more at 4° C. Then, 50 μL of the mixture was added to each well of the plate. In addition, 25 μL of 6 nM [^3H]-Methylspiperone (final concentration: 2 nM) was added to each well. The plate was sealed by putting TopSeal-A 96/384 well (6050185, PerkinElmer, Inc.) on the top of the plate, mixed using stirring deaerator (Well Tornado, FK-62, Sakaki-elc.) and incubated for 120 min at 25° C. After incubation, the radioactivity of [^3H]-Methylspiperone which was bonded to D3 receptor was determined by liquid scintillation counter (1450 Microbeta, PerkinElmer) in each well. Non-specific binding was calculated based on the radioactivity of [^3H]-Methylspiperone in the presence of 10 μM non-labeled Butaclamol. The total binding was calculated using the radioactivity of [^3H]-Methylspiperone in the absence of the compounds of the present invention (vehicle). The Ki values were calculated from dose-response curves.
(§8) Binding activities of the compounds of the present invention were calculated from the following Binding Inhibition Rate (%): Inhibition Rate(%)=[1−(c−a)/(b−a)]×100 • a: Average cpm of non-specific binding • b: Average cpm of total binding • c: Cpm in the presence of each test compound

Data set [2] concerns the target P-gp (human MDR1-expressing cells) (Homo sapiens (Human), UniProt P08183). The experiment in a line: P-gp substrate test. Conditions: efflux ratio (B→A/A→B) of MDR1-expressing cells compared with parent cells, Transwell monolayer. Type of data set: in vitro ADME. On the procedure: Test Example 14: P-gp Substrate Test
The compound of the present invention was added to one side of Transwell (registered trademark, CORNING) where human MDR1-expressing cells or parent cells have been monolayer-cultured. The cells were reacted for a constant time. The membrane permeability coefficients from the apical side toward the basolateral side (A→B) and from the basolateral side toward the apical side (B→A) were calculated for the MDR1-expressing cells or the parent cells, and the efflux ratio (ER; ratio of the membrane permeability coefficients of B→A and A→B) values of the MDR1-expressing cells and the parent cells were calculated. The efflux ratio (ER) values of the MDR1-expressing cells and the parent cells were compared to confirm whether or not the compound of the present invention would be a P-gp substrate.

For data set [3], the target named is human recombinant D2 receptor (Homo sapiens (Human), UniProt P14416). The experiment in a line: Test of binding inhibition for dopamine D2 receptor. Conditions: Jump-In HEK cell membranes, 1.2 nM [3H]-Methylspiperone, 120 min at 25° C.; read-out: hD2_Ki. On the procedure:
Test Example 2: Test of Binding Inhibition for Dopamine D2 Receptor
as §1
Cell membranes: Jump-In HEK cell membranes expressing human recombinant D2 receptor (2 μg/well)
as §2
Radioligand: (final concentration) 1.2 nM [^3H]-Methylspiperone ([^3H—N-methyl-]-Methylspiperone, NET-856, 83.8 Ci/mmol, PerkinElmer)
Non-specific ligand: (final concentration) 10 μM Butaclamol [(+)-Butaclamol Hydrochloride, D033; Sigma]
as §3, §4, §5
[^3H]-Methylspiperone was weighed and the buffer solution was added to make a 3.6 nM solution.
as §6
as §7, with “amount: 2” for “amount: 4”, “SPA bead” for “SPA beads”, “of 3.6” for “of 6”, “concentration: 1.2” for “concentration: 2”, “(6050185, PerkinElmer)” for “(6050185, PerkinElmer, Inc.)”, “to D2” for “to D3”
as §8

Sequence of P-gp (human MDR1-expressing cells) (P08183 whole entry): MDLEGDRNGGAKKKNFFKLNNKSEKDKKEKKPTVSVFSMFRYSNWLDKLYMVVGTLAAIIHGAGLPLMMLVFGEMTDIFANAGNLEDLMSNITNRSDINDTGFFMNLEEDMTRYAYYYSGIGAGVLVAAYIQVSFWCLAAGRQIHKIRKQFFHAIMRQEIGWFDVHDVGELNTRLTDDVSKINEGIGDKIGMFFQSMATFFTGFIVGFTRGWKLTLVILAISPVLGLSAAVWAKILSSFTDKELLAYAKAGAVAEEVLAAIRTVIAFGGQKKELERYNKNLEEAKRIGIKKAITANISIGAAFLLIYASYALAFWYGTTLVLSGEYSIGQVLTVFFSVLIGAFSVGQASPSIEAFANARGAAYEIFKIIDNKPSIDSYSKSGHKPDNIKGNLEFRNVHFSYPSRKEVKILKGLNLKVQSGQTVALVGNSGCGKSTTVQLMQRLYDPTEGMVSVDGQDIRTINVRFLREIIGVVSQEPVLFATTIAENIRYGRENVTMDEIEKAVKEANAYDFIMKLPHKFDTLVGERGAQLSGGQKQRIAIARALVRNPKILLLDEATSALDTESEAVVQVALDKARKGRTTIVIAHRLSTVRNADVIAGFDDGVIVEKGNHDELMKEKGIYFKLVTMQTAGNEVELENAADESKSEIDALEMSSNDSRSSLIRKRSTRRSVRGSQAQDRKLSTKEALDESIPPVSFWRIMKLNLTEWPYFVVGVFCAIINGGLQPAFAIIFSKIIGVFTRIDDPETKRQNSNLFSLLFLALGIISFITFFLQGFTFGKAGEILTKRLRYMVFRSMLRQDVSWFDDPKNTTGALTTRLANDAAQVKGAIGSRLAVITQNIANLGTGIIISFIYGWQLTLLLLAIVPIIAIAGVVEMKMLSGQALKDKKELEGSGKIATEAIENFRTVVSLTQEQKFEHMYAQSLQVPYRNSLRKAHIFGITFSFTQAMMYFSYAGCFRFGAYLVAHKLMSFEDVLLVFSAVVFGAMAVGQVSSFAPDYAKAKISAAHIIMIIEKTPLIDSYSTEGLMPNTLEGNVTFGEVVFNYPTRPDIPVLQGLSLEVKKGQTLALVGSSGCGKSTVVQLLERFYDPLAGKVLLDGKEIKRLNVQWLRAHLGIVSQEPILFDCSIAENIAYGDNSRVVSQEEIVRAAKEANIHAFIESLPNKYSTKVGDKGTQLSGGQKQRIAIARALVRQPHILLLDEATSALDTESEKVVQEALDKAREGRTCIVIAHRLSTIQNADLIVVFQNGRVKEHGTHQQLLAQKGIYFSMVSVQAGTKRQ
Sequence of human recombinant D2 receptor (P14416 whole entry): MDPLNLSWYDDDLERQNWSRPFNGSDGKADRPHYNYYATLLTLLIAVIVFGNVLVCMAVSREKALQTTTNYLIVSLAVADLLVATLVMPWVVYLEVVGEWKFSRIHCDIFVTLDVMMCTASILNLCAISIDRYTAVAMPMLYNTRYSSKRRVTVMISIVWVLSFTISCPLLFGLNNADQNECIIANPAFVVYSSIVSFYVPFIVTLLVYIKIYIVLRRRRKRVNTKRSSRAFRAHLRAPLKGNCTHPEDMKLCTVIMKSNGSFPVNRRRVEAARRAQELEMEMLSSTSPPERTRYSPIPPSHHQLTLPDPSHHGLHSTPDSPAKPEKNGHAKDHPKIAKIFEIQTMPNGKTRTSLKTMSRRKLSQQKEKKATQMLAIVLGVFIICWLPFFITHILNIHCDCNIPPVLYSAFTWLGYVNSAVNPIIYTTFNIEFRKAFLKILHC
Sequence of human recombinant D3 receptor (P35462 whole entry): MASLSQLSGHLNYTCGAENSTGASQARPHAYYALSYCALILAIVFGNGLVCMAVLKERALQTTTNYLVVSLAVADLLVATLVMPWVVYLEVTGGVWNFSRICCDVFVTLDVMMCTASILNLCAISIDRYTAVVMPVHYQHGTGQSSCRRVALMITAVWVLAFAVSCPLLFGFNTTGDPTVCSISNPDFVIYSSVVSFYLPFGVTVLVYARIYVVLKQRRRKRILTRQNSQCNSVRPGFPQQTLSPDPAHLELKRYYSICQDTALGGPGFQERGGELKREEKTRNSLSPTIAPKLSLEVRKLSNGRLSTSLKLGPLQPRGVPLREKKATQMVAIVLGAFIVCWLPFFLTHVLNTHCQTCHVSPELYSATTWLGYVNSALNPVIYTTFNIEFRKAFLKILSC

With `CCc1cc([C@]23C[C@H]2CN(CC[C@H]2CC[C@H](NC(=O)Cc4cnc(C)o4)CC2)C3)no1` [Compound I-052], the Ki stood at 0.00058 µM in data set [1] and 0.92 µM in data set [3]. Further, in data set [2], the “P-gp ER ratio” value turned out to be 2.4.

Take `CCc1cc([C@]23C[C@H]2CN(CC[C@H]2CC[C@H](NC(=O)Cc4cnn(C)n4)CC2)C3)no1` [Compound I-053]: the Ki in data set [1] is 0.00048 µM; in data set [3], 1.1 µM. Also, the “P-gp ER ratio” value in data set [2] is 1.9.

These data come from patent US11447484B2, “Cyclic compound having dopamine D3 receptor antagonistic effect” (Shionogi & Co., Ltd., priority 2018, dated 2022).
